Measured values from patent US6423689B1, “Peptidyl calcium channel blockers” (Warner-Lambert Company, priority 1997, dated 2002).

Molecular target: T1, N-type Ca2+ channels in IMR-32 cells (Homo sapiens, UniProt Q00975)
T1 construct: host or cells: IMR-32 cells, differentiated with dibutyryl cAMP and bromodeoxyuridine
Test: Inhibition of N-type calcium flux in IMR-32 cells (Indo-1 fluorescence, nitrendipine present)
Assay type: cell-based
Conditions: 1 μM
Method: Measurement of N-type Ca^2+ Channel Blocking Potencies of Compounds in IMR-32 Cells Using the Fluorescent Ca^2+ Indicator Indo-1
IMR-32 cells are a human tumoral cell line of neural origin. […] Calcium flux into these cells may be induced by stimulation with elevated potassium concentrations. The L-channel component of calcium flux may be blocked by adding 5 μM nitrendipine. The remaining component of calcium entry into the IMR-32 cells is due to calcium flux through N-type calcium channels. Intracellular calcium concentrations are measured using the fluorescent calcium indicator Indo 1. The effect of drug concentration on calcium uptake is studied.
The IMR-32 cell line was obtained from the American Type Culture Collection (Rockville, Md.). Cells were grown in Eagle's Minimum Essential Medium with Eagle's salts supplemented with 10% fetal bovine serum, 2 mM L-Gln and antibiotic/antimycotic mixture (Gibco). […] After 7 to 13 days of differentiation, cells were detached using 0.5 mM EDTA and loaded with 5 μM Indo-1 acetoxymethyl ester (Molecular Probes, Eugene, OR) at […] for 45 minutes. Loaded cells were washed twice, resuspended (˜10^7 cells/mL) in assay buffer (10 mM HEPES/Tris pH 7.4 in Hank's Balanced Salt Solution without bicarbonate or phenol red containing 0.5% bovine serum albumin) and kept on ice until use. Fluorescence measurements were carried out in a Photon Technology International (PTI, South Brunswick, N.J.) Model RF-F3004 spectrofluorometer with dual emission monochromators using excitation at 350 nm and emission at 400 and 490 nm. The instrument was equipped with a thermostated cuvette holder with stirring capabilities as well as with a computer-controlled pump which allowed for reagent addition during measurement. Instrument control and data collection was done by PTI's OSCAR software running on an IBM compatible computer. […] Samples were incubated for 10 minutes at 30° C. and then aliquoted into three 10×10 mm disposable acrylic cuvettes. Emission signals at 400 and 490 nm were acquired from each cuvette at 30° C. for 50 seconds. At 20 seconds after the start of reading, cells were depolarized by the addition of 160 μL of stimulation solution (1M KCl, 68 mM CaCl2) to the cuvette via the computer-controlled pump. Ratio of dual emission signals (400 nm/490 nm), which is proportional to intracellular Ca^2+ concentration, was plotted against time, and the difference between maximal response after stimulation and basal value (before stimulation) was determined. Values obtained in this way were plotted as a function of drug concentration. IC50 values of test compounds were calculated by fitting a four-parameter logistic function to the data using the least squares method.

T1 sequence (Q00975 whole entry): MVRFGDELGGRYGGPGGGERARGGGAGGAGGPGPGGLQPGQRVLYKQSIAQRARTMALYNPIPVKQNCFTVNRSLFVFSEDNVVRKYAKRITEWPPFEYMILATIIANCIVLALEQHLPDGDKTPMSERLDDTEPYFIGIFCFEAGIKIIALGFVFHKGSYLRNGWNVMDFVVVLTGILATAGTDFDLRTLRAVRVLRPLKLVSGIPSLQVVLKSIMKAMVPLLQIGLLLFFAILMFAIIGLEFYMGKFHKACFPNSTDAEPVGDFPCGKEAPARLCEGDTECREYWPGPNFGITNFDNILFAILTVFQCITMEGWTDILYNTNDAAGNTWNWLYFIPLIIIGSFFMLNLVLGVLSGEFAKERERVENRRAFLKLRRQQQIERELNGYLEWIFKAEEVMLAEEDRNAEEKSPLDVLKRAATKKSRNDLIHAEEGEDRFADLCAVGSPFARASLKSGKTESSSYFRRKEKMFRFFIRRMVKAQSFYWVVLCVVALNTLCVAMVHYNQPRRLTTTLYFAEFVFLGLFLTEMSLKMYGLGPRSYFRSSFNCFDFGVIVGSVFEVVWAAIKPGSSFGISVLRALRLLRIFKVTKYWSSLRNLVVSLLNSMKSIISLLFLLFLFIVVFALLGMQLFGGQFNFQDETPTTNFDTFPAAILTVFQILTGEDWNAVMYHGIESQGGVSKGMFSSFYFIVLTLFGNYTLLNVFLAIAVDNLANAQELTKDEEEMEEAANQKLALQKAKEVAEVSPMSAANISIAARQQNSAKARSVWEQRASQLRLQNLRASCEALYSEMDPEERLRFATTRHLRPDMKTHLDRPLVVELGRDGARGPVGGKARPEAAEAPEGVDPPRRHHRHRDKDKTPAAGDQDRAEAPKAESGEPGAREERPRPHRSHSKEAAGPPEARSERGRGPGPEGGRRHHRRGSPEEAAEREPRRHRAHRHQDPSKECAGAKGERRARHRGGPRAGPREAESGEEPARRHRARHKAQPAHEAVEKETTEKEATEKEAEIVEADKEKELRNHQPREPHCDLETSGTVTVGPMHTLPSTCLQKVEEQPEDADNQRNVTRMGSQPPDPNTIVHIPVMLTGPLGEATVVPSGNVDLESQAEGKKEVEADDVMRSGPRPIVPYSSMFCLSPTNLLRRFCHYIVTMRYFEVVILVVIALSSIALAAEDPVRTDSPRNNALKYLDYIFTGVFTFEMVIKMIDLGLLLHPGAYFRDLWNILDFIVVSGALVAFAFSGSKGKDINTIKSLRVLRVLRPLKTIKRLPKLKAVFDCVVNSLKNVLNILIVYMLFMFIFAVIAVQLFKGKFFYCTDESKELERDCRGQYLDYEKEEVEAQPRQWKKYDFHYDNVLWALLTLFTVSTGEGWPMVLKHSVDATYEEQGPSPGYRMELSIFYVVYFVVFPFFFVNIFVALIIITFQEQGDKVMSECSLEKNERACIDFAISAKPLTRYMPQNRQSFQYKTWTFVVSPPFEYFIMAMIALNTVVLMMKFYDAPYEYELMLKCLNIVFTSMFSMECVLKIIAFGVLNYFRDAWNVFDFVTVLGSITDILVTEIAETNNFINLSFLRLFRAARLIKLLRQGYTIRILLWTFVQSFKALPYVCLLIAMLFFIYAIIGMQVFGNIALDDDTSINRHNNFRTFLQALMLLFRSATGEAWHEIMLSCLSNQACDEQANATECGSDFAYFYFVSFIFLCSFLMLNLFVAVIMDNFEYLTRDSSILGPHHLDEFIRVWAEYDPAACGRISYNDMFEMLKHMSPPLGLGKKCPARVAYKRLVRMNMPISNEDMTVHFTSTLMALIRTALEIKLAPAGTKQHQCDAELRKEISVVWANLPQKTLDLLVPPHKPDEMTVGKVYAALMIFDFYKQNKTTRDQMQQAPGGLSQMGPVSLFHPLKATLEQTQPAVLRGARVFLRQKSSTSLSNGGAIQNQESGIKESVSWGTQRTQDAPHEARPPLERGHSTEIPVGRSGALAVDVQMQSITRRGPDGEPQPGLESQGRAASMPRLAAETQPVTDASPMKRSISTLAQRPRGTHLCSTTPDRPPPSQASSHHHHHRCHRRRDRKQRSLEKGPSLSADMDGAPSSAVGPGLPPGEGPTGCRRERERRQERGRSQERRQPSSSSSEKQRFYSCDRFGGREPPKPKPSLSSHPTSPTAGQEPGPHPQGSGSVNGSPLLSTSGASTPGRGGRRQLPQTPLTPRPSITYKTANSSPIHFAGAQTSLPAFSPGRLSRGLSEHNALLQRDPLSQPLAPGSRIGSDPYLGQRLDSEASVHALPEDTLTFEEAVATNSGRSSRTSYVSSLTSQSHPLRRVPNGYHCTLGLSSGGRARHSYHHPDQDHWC
T1 sequence (P54289 25-956 partner limits assumed): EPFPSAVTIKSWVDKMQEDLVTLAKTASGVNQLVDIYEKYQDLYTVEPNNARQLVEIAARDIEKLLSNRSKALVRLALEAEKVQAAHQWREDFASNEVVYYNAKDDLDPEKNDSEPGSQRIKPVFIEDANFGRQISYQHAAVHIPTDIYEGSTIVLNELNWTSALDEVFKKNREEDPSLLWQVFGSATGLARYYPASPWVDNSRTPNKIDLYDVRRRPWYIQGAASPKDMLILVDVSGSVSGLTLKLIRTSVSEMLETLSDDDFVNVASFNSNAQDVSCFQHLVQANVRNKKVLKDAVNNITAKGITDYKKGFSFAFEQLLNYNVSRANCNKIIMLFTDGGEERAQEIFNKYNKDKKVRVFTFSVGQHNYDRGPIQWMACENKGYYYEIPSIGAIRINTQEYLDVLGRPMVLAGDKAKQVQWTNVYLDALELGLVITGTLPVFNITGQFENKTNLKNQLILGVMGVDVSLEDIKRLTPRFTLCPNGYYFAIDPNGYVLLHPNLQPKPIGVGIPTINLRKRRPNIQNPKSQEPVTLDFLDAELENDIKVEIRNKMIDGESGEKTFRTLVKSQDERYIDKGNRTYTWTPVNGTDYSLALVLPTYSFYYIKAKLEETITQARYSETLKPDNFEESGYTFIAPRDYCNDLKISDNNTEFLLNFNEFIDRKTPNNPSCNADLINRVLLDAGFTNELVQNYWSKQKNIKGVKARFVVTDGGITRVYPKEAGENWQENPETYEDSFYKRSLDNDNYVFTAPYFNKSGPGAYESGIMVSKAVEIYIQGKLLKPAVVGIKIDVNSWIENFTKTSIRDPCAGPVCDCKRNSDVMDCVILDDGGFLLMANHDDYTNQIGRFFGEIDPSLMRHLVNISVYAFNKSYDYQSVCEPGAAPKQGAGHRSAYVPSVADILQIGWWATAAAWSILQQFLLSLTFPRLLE
T1 sequence (P54289 957-1103 partner limits assumed): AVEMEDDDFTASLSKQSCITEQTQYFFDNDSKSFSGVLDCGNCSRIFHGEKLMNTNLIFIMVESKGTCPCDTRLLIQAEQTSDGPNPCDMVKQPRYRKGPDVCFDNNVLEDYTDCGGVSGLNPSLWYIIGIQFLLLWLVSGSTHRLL
T1 sequence (P54284 whole entry partner): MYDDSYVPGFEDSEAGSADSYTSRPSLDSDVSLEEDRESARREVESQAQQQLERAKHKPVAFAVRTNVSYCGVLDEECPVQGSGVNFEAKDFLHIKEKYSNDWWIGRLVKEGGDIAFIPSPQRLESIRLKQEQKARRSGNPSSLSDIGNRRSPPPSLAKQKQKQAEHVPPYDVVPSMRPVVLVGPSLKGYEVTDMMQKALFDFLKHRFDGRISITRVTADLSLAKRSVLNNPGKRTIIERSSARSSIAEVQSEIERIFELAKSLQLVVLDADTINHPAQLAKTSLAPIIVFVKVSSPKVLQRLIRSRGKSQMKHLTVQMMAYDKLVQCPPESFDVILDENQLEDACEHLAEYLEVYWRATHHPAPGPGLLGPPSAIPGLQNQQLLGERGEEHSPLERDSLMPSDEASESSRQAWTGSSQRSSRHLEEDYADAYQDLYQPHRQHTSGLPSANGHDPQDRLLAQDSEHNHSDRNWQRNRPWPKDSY

Compound | Inhibition of Calcium Flux in IMR-32 Cells % Inhibition at 1 μM
CC(C)C[C@H](NC(=O)Nc1cc(Cl)cc(Cl)c1)C(=O)N[C@@H](Cc1ccc(OCc2ccccc2)cc1)C(=O)OC(C)(C)C (relative stereo) [Example 86, [S-(R*,R*)]-3-(4-Benzyloxy-phenyl)-2-{2-[3-(3,5-dichloro-phenyl)-ureido]-4-methyl-pentanoylamino}-propionic acid tert-butyl ester] | 40%
CC(C)C[C@H](NC(=O)NC(C)C)C(=O)N[C@@H](Cc1ccc(OCc2ccccc2)cc1)C(=O)OC(C)(C)C (relative stereo) [Example 87, [S-(R*,R*)]-3-(4-Benzyloxy-phenyl)-2-[2-(3-isopropyl-ureido)-4-methyl-pentanoylamino]-propionic acid tert-butyl ester] | 37%
CNC(=O)N[C@@H](CC(C)C)C(=O)N[C@@H](Cc1ccc(OCc2ccccc2)cc1)C(=O)OC(C)(C)C (relative stereo) [Example 88, [S-(R*,R*)]-3-(4-Benzyloxy-phenyl)-2-[4-methyl-2-(3-methyl-ureido)-pentanoylamino]-propionic acid tert-butyl ester] | 30%
CCNC(=O)N[C@@H](CC(C)C)C(=O)N[C@@H](Cc1ccc(OCc2ccccc2)cc1)C(=O)OC(C)(C)C (relative stereo) [Example 89, [S-(R*,R*)]-3-(4-Benzyloxy-phenyl)-2-[2-(3-ethyl-ureido)-4-methyl-pentanoylamino]-propionic acid tert-butyl ester] | 30%
CC(C)C[C@H](NC(=O)c1ccco1)C(=O)C[C@H](Cc1ccc(OCc2ccccc2)cc1)C(=O)OC(C)(C)C (relative stereo) [Example 90, [S-(R*,R*)]-2-(4-Benzyloxy-benzyl)-5-[(furan-2-carbonyl)-amino]-7-methyl-4-oxo-octanoic acid tert-butyl ester] | 37%
CCOc1ccc(C(=O)N[C@@H](CC(C)C)C(=O)N[C@@H](Cc2ccc(OCc3ccccc3)cc2)C(=O)OC(C)(C)C)cc1 (relative stereo) [Example 91, [S-(R*,R*)]-3-(4-Benzyloxy-phenyl)-2-[2-(4-ethoxy-benzoylamino)-4-methyl-pentanoylamino]-propionic acid tert-butyl ester] | 34%
CC(C)C[C@H](NC(=O)c1ccc(C(C)(C)C)cc1)C(=O)N[C@@H](Cc1ccc(OCc2ccccc2)cc1)C(=O)OC(C)(C)C (relative stereo) [Example 93, [S-(R*,R*)]-3-(4-Benzyloxy-phenyl)-2-[2-(4-tert-butyl-benzoylamino)-4-methyl-pentanoylamino]-propionic acid tert-butyl ester] | 17%
CC(C)C[C@H](NC(=O)c1ccc(F)cc1)C(=O)N[C@@H](Cc1ccc(OCc2ccccc2)cc1)C(=O)OC(C)(C)C (relative stereo) [Example 94, [S-(R*,R*)]-3-(4-Benzyloxy-phenyl)-2-[2-(4-fluoro-benzoylamino)-4-methyl-pentanoylamino]-propionic acid tert-butyl ester] | 29%
Cc1ccccc1S(=O)(=O)N[C@@H](CC(C)C)C(=O)N[C@@H](Cc1ccc(OCc2ccccc2)cc1)C(=O)OC(C)(C)C (relative stereo) [Example 105, [S-(R*,R*)]-3-(4-Benzyloxy-phenyl)-2-[4-methyl-2-(toluene-2-sulfonylamino)-pentanoylamino]-propionic acid tert-butyl ester] | 29%

Other lines, results leading:

Inhibition of Calcium Flux in IMR-32 Cells % Inhibition at 1 μM | Compound
27% | COc1ccc(C(=O)N[C@@H](CC(C)C)C(=O)N[C@@H](Cc2ccc(OCc3ccccc3)cc2)C(=O)OC(C)(C)C)cc1 (relative stereo) [Example 95, [S-(R*,R*)]-3-(4-Benzyloxy-phenyl)-2-[2-(4-methoxy-benzoylamino)-4-methyl-pentanoylamino]-propionic acid tert-butyl ester]
33% | COc1cccc(C(=O)N[C@@H](CC(C)C)C(=O)N[C@@H](Cc2ccc(OCc3ccccc3)cc2)C(=O)OC(C)(C)C)c1 (relative stereo) [Example 96, [S-(R*,R*)]-3-(4-Benzyloxy-phenyl)-2-[2-(3-methoxy-benzoylamino)-4-methyl-pentanoylamino]-propionic acid tert-butyl ester]
30% | CC(C)C[C@H](NC(=O)c1ccc2c(c1)OCO2)C(=O)N[C@@H](Cc1ccc(OCc2ccccc2)cc1)C(=O)OC(C)(C)C (relative stereo) [Example 97, [S-(R*,R*)]-2-{2-[(Benzo[1,3]dioxole-5-carbonyl)-amino]-4-methyl-pentanoylamino}-3-(4-benzyloxy-phenyl)-propionic acid tert-butyl ester]
34% | COc1ccccc1C(=O)N[C@@H](CC(C)C)C(=O)N[C@@H](Cc1ccc(OCc2ccccc2)cc1)C(=O)OC(C)(C)C (relative stereo) [Example 98, [S-(R*,R*)]-3-(4-Benzyloxy-phenyl)-2-[2-(2-methoxy-benzoylamino)-4-methyl-pentanoylamino]-propionic acid tert-butyl ester]
19% | CC(C)C[C@H](NC(=O)c1ccc2ccccc2c1)C(=O)N[C@@H](Cc1ccc(OCc2ccccc2)cc1)C(=O)OC(C)(C)C (relative stereo) [Example 99, [S-(R*,R*)]-3-(4-Benzyloxy-phenyl)-2-{4-methyl-2-[(naphthalene-2-carbonyl)-amino]pentanoylamino}-propionic acid tert-butyl ester]
18% | COc1ccc(C(=O)N[C@@H](CC(C)C)C(=O)N[C@@H](Cc2ccc(OCc3ccccc3)cc2)C(=O)OC(C)(C)C)cc1OC (relative stereo) [Example 100, [S-(R*,R*)]-3-(4-Benzyloxy-phenyl)-2-[2-(3,4-dimethoxy-benzoylamino)-4-methyl-pentanoylamino]-propionic acid tert-butyl ester]
28% | COc1ccc(S(=O)(=O)N[C@@H](CC(C)C)C(=O)N[C@@H](Cc2ccc(OCc3ccccc3)cc2)C(=O)OC(C)(C)C)cc1 (relative stereo) [Example 103, [S-(R*,R*)]-3-(4-Benzyloxy-phenyl)-2-[2-(4-methoxy-benzenesulfonylamino)-4-methyl-pentanoylamino]-propionic acid tert-butyl ester]
35% | CC(C)C[C@H](NS(=O)(=O)c1ccc(F)cc1)C(=O)N[C@@H](Cc1ccc(OCc2ccccc2)cc1)C(=O)OC(C)(C)C (relative stereo) [Example 104, [S-(R*,R*)]-3-(4-Benzyloxy-phenyl)-2-[2-(4-fluoro-benzenesulfonylamino)-4-methyl-pentanoylamino]-propionic acid tert-butyl ester]
32% | CC(C)C[C@H](NS(=O)(=O)c1cc(Cl)cc(Cl)c1)C(=O)N[C@@H](Cc1ccc(OCc2ccccc2)cc1)C(=O)OC(C)(C)C (relative stereo) [Example 106, [S-(R*,R*)]-3-(4-Benzyloxy-phenyl)-2-[2-(3,5-dichloro-benzenesulfonylamino)-4-methylpentanoylamino]-propionic acid tert-butyl ester]

Same assay, conditions: 10 μM

Compound | Inhibition of Calcium Flux in IMR-32 Cells % Inhibition at 10 μM
CC(C)C[C@H](NC(=O)c1ccco1)C(=O)C[C@H](Cc1ccc(OCc2ccccc2)cc1)C(=O)OC(C)(C)C (relative stereo) [Example 90, [S-(R*,R*)]-2-(4-Benzyloxy-benzyl)-5-[(furan-2-carbonyl)-amino]-7-methyl-4-oxo-octanoic acid tert-butyl ester] | 83%
CCOc1ccc(C(=O)N[C@@H](CC(C)C)C(=O)N[C@@H](Cc2ccc(OCc3ccccc3)cc2)C(=O)OC(C)(C)C)cc1 (relative stereo) [Example 91, [S-(R*,R*)]-3-(4-Benzyloxy-phenyl)-2-[2-(4-ethoxy-benzoylamino)-4-methyl-pentanoylamino]-propionic acid tert-butyl ester] | 48%

Results, then the compound that gave them:

Inhibition of Calcium Flux in IMR-32 Cells % Inhibition at 10 μM | Compound
75% | CC(C)C[C@H](NS(=O)(=O)c1cccc2nsnc12)C(=O)C[C@H](Cc1ccc(OCc2ccccc2)cc1)C(=O)OC(C)(C)C (relative stereo) [Example 102, [S-(R*,R*)]-5-(Benzo[1,2,5]thiadiazole-4-sulfonylamino)-2-(4-benzyloxybenzyl)-7-methyl-4-oxo-octanoic acid tert-butyl ester]
57% | CC(C)C[C@H](NS(=O)(=O)c1cccs1)C(=O)N[C@@H](Cc1ccc(OCc2ccccc2)cc1)C(=O)OC(C)(C)C (relative stereo) [Example 107, [S-(R*,R*)]-3-(4-Benzyloxy-phenyl)-2-[4-methyl-2-(thiophene-2-sulfonylamino)-pentanoylamino]-propionic acid tert-butyl ester]
